According to patent US4889857A, “Quinolonecarboxylic acid compounds and pharmaceutical use thereof” (Yoshitomi Pharmaceutical Industries, Ltd., priority 1987, dated 1989):
Values after ≈ are worked out from the molar mass of the structure shown. Read-outs that look alike come from different tables or passages of the source.

How the values were obtained:
[1] = tested on: Micrococcus luteus IFO 12708; experiment: microbe, parasite or virus in culture; conditions: IFO12708
From the text: (§7) (Inoculum size: 10^6 cells/ml, Organisms with asterisk (*) were
(§8) cultivated in a 10% horse bloodadded medium.)

[2] = tested on: E. coli KC-14; experiment: Protective effect against experimental infection in mice; format: in vivo; conditions: oral, 1 h after i.p. inoculation of 5.75 × 10^4 cells/mouse [488 LD50] with mucin; survival day 7; 95% confidence limit
Method: (§1) Experimental infection was caused by inoculating male mice intraperitoneally with each organism. Each of the test compounds was administered orally to the mice, one hour after the inoculation. The therapeutic effect of each compounds was judged by using a 50% effective dose (ED50) from the survival rate on day 7 after injection by the Probit method as described in Proc. Soc. Exp. Biol. Med., Vol. 57, p.261-264, 1944. The Minimum inhibitory concentrations (MIC) were also measured.
(§2) (The overnight cultures of test organisms with an asterisk (*) were
(§3) diluted with 50% mucin and 0.5 ml of each was injected intraperitoneally
(§4) into mice. A double asterisk (**) means a 95% confidence limit. MRSA mean
(§5) methycillinresistant Staphylococcus aureus.)

[3] = tested on: S. pyogenes C-203; experiment: as above; format: in vivo; conditions: oral, 1 h after i.p. inoculation of 4.42 × 10^4 cells/mouse [680 LD50]; survival day 7; 95% confidence limit
Method: as §1, §2, §3, §4, §5

[4] = tested on: S. pneumoniae Type III; experiment: as above; format: in vivo; conditions: oral, 1 h after i.p. inoculation of 6.0 × 10^2 cells/mouse [12 LD50]; survival day 7; 95% confidence limit
Method: as §1, §2, §3, §4, §5

[5] = tested on: S. aureus 109(MRSA); experiment: as above; format: in vivo; conditions: oral, 1 h after i.p. inoculation of 4.93 × 10^8 cells/mouse [5.7 LD50] with mucin; survival day 7; 95% confidence limit
Method: as §1, §2, §3, §4, §5

[6] = tested on: S. aureus Smith; experiment: as above; format: in vivo; conditions: oral, 1 h after i.p. inoculation of 2.13 × 10^6 cells/mouse [792 LD50] with mucin; survival day 7; 95% confidence limit
Method: as §1, §2, §3, §4, §5

[7] = tested on: Aerococcus viridans IFO 12219; experiment: microbe, parasite or virus in culture; conditions: IFO12219
From the text: as §7, §8

[8] = tested on: Alcaligenes faecalis NCTC 415; experiment: Antibacterial activity in vitro (MIC); format: cell-based; conditions: NCTC415, inoculum 10^6 cells/ml
From the text: as §7, §8

[9] = tested on: Flavobacterium meningosepticum IFO 12535; experiment: Antibacterial activity in vitro (MIC); format: cell-based; conditions: Elizabethkingia meningoseptica, IFO12535; inoculum 10^6 cells/ml
From the text: as §7, §8

[10] = Acute toxicity; conditions: mouse, in vivo
Method: The compound A was intraveneously (iv) or orally (po) administered to a group of male mice once. After 10 days, the LD50 values were determined by the Litchfield-Wilcoxon method.

[11] = tested on: S. pyogenes C-203; experiment: MIC of the infecting organism (Experiment 2); format: cell-based; conditions: Streptococcus pyogenes, C203; Table 2
Method: (§6) Experimental infection was caused by inoculating male mice intraperitoneally with each organism. Each of the test compounds was administered orally to the mice, one hour after the inoculation. […] The Minimum inhibitory concentrations (MIC) were also measured.

[12] = tested on: S. pneumoniae Type III; experiment: MIC of the infecting organism (Experiment 2); format: cell-based; conditions: Streptococcus pneumoniae; Table 2
Method: as §6

[13] = tested on: S. aureus 109(MRSA); experiment: MIC of the infecting organism (Experiment 2); format: cell-based; conditions: Staphylococcus aureus, Table 2
Method: as §6

[14] = tested on: Enterococcus faecalis LS-101; experiment: Antibacterial activity in vitro (MIC); format: cell-based

In the case of `CNCC1CN(c2c(F)cc3c(=O)c(C(=O)O)cn(C4CC4)c3c2F)CCO1` (stereo not shown) [Compound A, 1-cyclopropyl-6,8-difluoro-1,4,-dihydro-7-[2-(methylaminomethyl)morpholino]-4-oxoquinoline-3-carboxylic acid], the MIC [1] was 0.39 µg/mL (≈ 0.991 µM), the ED50 [2] was 0.028(0.019-0.042) mg/mouse and the ED50 [3] was 0.214(0.124-0.388) mg/mouse. For the same compound, the ED50 [4] was 0.707(0.453-1.104) mg/mouse, the ED50 [5] was 0.061(0.041-0.093) mg/mouse and the ED50 [6] was 0.068(0.044-0.104) mg/mouse. For the same compound, the MIC [7] was 0.1 µg/mL (≈ 0.254 µM), the MIC [8] was 1.56 µg/mL (≈ 3.97 µM) and the MIC [9] was 1.56 µg/mL (≈ 3.97 µM). The LD50 at 240 h ([10]; iv) was 210 mg/kg, the LD50 at 240 h ([10]; po) was greater than 3000 mg/kg and the MIC [11] was 0.05 µg/mL. It also gave an MIC [12] of 0.05 µg/mL, an MIC [13] of 0.2 µg/mL and an MIC ([14]; LS101) of 0.1 µg/mL (≈ 0.254 µM).
In the case of `CC1COc2c(N3CCN(C)CC3)c(F)cc3c(=O)c(C(=O)O)cn1c23` (stereo not shown) [OFLX, 9-fluoro-3-methyl-10-(4-methyl-1-piperazinyl)-7-oxo-2,3-dihydro-7H-pyrido[1,2,3-de][1,4]-benzoxazine-6-carboxylic acid], the MIC [1] was 3.13 µg/mL (≈ 8.66 µM), the ED50 [2] was 0.018(0.013-0.026) mg/mouse and the ED50 [3] was 1.432(1.006-2.393) mg/mouse. For the same compound, the ED50 [4] was greater than 2 mg/mouse, the ED50 [5] was 0.459(0.257-0.661) mg/mouse and the ED50 [6] was 0.380(0.253-0.601) mg/mouse. It also gave an MIC [7] of 3.13 µg/mL (≈ 8.66 µM), an MIC [8] of 0.78 µg/mL (≈ 2.16 µM) and an MIC [9] of 0.78 µg/mL (≈ 2.16 µM). The MIC [11] was 0.78 µg/mL, the MIC [12] was 1.56 µg/mL and the MIC [13] was 0.78 µg/mL. For the same compound, the MIC ([14]; LS101, inoculum 10^6 cells/ml, 10% horse blood-added medium, read-out: MIC) was 0.78 µg/mL (≈ 2.16 µM).
